The source of these data is paper PMC12728655, “Engineering an Artificial Myxopyronin Derivative with Enhanced Metabolic Stability via Mutasynthesis” (JACS Au, 2025).

Each structure is given as a SMILES string. ≈ marks a conversion by molar mass, not a printed value. Where two headings read alike, the source gives them in different places. Where only a bound is given, the exact number is not on record here.

The subject of one data set is Rif^R-S. aureus Newman. As to the kind of experiment: microbe, parasite or virus in culture. Type of data set: cell-based. Particulars: Staphylococcus aureus.
For another data set, the system named is wt-M. tuberculosis H37Rv. As to the kind of experiment: microbe, parasite or virus in culture. The format is cell-based. Particulars: Mycobacterium tuberculosis.
The next data set concerns E. faecalis DSM-20478. Type of data set: cell-based. Particulars: Enterococcus faecalis, DSM20478.
Data set [1] can be described thus: in vitro. The format is in vitro ADME. Particulars: plasma, pH 7.4. Here is the method: Plasma protein binding was determined using the Rapid Equilibrium Dialysis (RED) system (Thermo Fisher Scientific, Waltham MA, USA). Compounds were diluted to 10 µM in 50% murine (CD-1), human or Wistar rat plasma (Neo Biotech, Nanterre, France) in PBS pH 7.4 and added to the respective chamber according to the manufacturer’s protocol, followed by addition of PBS pH 7.4 to the opposite chamber. Samples were taken immediately after addition to the plate as well as after 2, 4 and 5 h by mixing 10 µL with 80 µL ice-cold ice-cold […]
(1 picture or pasted object on this page, not shown here) […]
by addition of 10 µL plasma to samples taken from PBS and vice versa. Samples were stored on ice until the end of the incubation and precipitated protein was removed by centrifugation (15 min, 4 °C, 4,000 g, 2 centrifugation steps). Concentration of the remaining test compound at the different time points was analyzed by HPLC-MS/MS (Vanquish Flex coupled to a TSQ Altis Plus, Thermo Fisher, Dreieich, Germany). […]
Germany). To obtain percent viability for each sample, their ODs were related to those of DMSO controls. At least three independent measurements were performed for each compound. The calculation of CC50 was performed using the nonlinear regression function of GraphPad Prism 10 (GraphPad Software, San Diego, CA, USA).

The nature of data set [2]: in vitro. Particulars: Wistar, rat, microsomes.
The nature of data set [3]: Metabolic stability in liver microsomes. Conditions: human. (In general: Liver microsomes are a subcellular fraction often used to study metabolism.)
The nature of data set [4]: in vitro. Type of data set: in vitro ADME. Conditions: Wistar, rat, plasma. As to the method:
(§1) To determine stability in plasma, the compound (1 µM) was incubated with pooled CD-1 mouse/human or Wistar rat plasma (Neo Biotech, Nanterre, France). Samples were taken by […]
(§2) 10% methanol/acetonitrile). The plasma stability of procain, propantheline and diltiazem were determined in parallel to confirm the enzymatic activity. Samples were stored on ice until the end of the incubation and precipitated protein was removed by centrifugation (15 min, 4 °C, 4,000 g, two centrifugation steps). Concentration of the remaining test compound at the different time points was analyzed by HPLC-MS/MS (Vanquish Flex coupled to a TSQ Altis Plus, Thermo Fisher, Dreieich, Germany). The plasma stability of procain, propantheline and diltiazem were determined in parallel to confirm the enzymatic activity. […]

Data set [5] in a line: in vitro. Conditions: C57BL/6, mouse, microsomes.
The next data set deals with E. coli ΔtolC. As to the kind of experiment: microbe, parasite or virus in culture. The format is cell-based. Conditions: Escherichia coli.
For data set [6] the following is noted: Wistar, rat, microsomes, 2 h, 1 µM.
A further data set deals with M^R -S. aureus N315. The data set can be described thus: microbe, parasite or virus in culture. Type of data set: cell-based. Conditions: Staphylococcus aureus.
Another data set is described as follows: Cytotoxicity assay (MTT). Type of data set: cell-based. Particulars: human, HepG2 cells, HepG2, 100 μM. As to the method: by addition of 10 µL plasma to samples taken from PBS and vice versa. Samples were stored on ice until the end of the incubation and precipitated protein was removed by centrifugation (15 min, 4 °C, 4,000 g, 2 centrifugation steps). Concentration of the remaining test compound at the different time points was analyzed by HPLC-MS/MS (Vanquish Flex coupled to a TSQ Altis Plus, Thermo Fisher, Dreieich, Germany). The amount of compound bound to protein was calculated using the equation PPB [%] = 100 – 100 x (amount in buffer chamber/amount in […]
To obtain information regarding the toxicity of test compounds, their impact on the viability of human cells was investigated. HepG2 cells (2x10^4 cells per well) were seeded in 96-well, flat-bottomed culture plates in 100 µL culture medium (DMEM containing 10% fetal calve serum, 1% penicillin-streptomycin). Twenty-four hours after seeding the cells, medium was removed and replaced by medium containing test compounds in a final DMSO concentration of 1%.
Compounds were tested in duplicates at a single concentration or, for CC 50 determination, at 8 concentrations that were prepared via 2-fold serial dilutions in 1% DMSO/medium. Epirubicin and doxorubicin were used as positive controls in serial dilutions starting from 10 µM, and rifampicin was used as a negative control (at 100 µM). […]

A short description of data set [7]: Metabolic stability in liver microsomes. Conditions: C57BL/6, mouse.
The test system of a further data set is M^R/V^R-S. aureus Mu50. As to the kind of experiment: microbe, parasite or virus in culture. Conditions: Staphylococcus aureus. Type of data set: cell-based.
The nature of data set [8]: Metabolic stability in liver microsomes. Conditions: Wistar, rat.
A short description of data set [9]: in vitro. The format is in vitro ADME. Conditions: plasma. Here is the method:
Figure S6: Metabolic stability in human liver microsomes with CYP isozyme involvement. (A) Human microsomal metabolism of MXY A (1) and (B) for MXY (8) in presence of 10 µM CYP inhibitors for CYP3A4 (ketoconazole), CYP1A2 (fluvoxamine), CYP2C9 (sulfaphenazole) or CYP2D6 (quinidine). The remaining test compound compared to t=0 min is given. (C) Corresponding half-lives (t1/2s) and fold increase compared to t1/2 of the compound in absence of inhibitors. Values represent means ± standard deviation (SD) of at least 3 independent measurements. *Mean half-life in presence of DMSO represents only assays where direct comparison to CYP inhibitors was performed; Table 2 of the main text includes additional replicates.
as §1, §2

Data set [10] is described as follows: in vitro. Conditions: human, microsomes, Liver microsomes Clint.
Another data set deals with wt-S. aureus Newman. Type of data set: cell-based. Particulars: Staphylococcus aureus.
Data set [11] is described as follows: in vitro. The format is in vitro ADME. Particulars: mouse, hepatocytes. As to the method: Metabolic stability in mouse hepatocytes
For the evaluation of combined phase I and phase II metabolic stability, the compound (1 μM) was incubated with 0.25 x 10^6 cells/mL of pooled mouse hepatocytes (Xenotech, Kansas City, USA). Cells were thawed in Leibovitz’s L-15 medium without phenol red (ThermoFisher Scientific, Waltham, USA). Briefly, cells were transferred into 50 mL of medium, followed by centrifugation at 55 g for 3 min. Supernatant was discarded and the cell count determined after gently resuspending the cell pellet in 1 mL of medium. Hepatocytes were diluted to 0.5 x 10^6 cells/mL and incubated at 37 °C, 700 rpm for 10 min, to achieve the desired final cell count after addition of an equal volume of test compounds in medium, leading to final test concentration of 1 µM at 1% DMSO. Samples were incubated at 37 °C, for 240 min, 700 rpm and the incubation was stopped after defined time points by precipitation of aliquots in 4 […]
methanol/acetonitrile). The metabolic stability of testosterone, verapamil, ketoconazole and 7-hydroxycoumarine were determined in parallel to confirm the enzymatic activity of mouse hepatocytes. Samples were stored on ice until the end of the incubation and precipitated protein was removed by centrif ugation (15 min, 4 °C, 4. 000 g). […]

For data set [12] the following is noted: human, 1 µM.
The conditions of data set [13]: stated as known, reference not given; cited from earlier work.
A short description of data set [14]: Stability during large-scale production and isolation. Conditions: large-scale production, also with exclusion of light.
Excerpt: We initially attempted the large-scale production of furan analog 14.

What is called fraction unbound is free concentration divided by total concentration. As usually defined, the microsomal CLint is a measure of how fast metabolising enzymes remove a compound, apart from limits set by blood flow. As usually defined, the half-life is the time needed for the level to fall by half in the phase considered. High values mean slow decline, low ones rapid decline. For orientation: viability means the share of living cells, or the viability signal relative to a control. A higher viability goes with better survival. The hepatocyte CLint is a measure of how fast metabolising enzymes remove a compound, apart from limits set by blood flow. Low readings indicate greater metabolic stability, high ones faster metabolism. For `COC(=O)N/C=C/CC[C@@H](C)c1cc(O)c(C(=O)/C(C)=C/C=C(\C)CCC(F)(F)F)c(=O)o1` [MYX (8)], the MIC was 2 µg/mL (≈ 4.24 µM) in the data set with Rif^R-S. aureus Newman; 2 µg/mL (≈ 4.24 µM) in the data set on wt-M. tuberculosis H37Rv; over 64 µg/mL against E. faecalis DSM-20478; 4 µg/mL (≈ 8.48 µM) against E. coli ΔtolC; 2 to 4 µg/mL (≈ 4.24 to 8.48 µM) with M^R -S. aureus N315; 1 to 2 µg/mL (≈ 2.12 to 4.24 µM) in the data set with M^R/V^R-S. aureus Mu50. In addition, the MIC against wt-S. aureus Newman (NEWMAN) was found to be 2 µg/mL (≈ 4.24 µM). Also, the fraction unbound at 10 µM was 0.0036 in the data set “in vitro [1]” (CD-1, mouse); 0.0049 in the data set “in vitro [1]” (Wistar, rat); 0.0162 in the data set “in vitro [1]” (human). Moreover, the values for the microsomal CLint at 1 µM in “in vitro [2]”, in “in vitro [5]” and in “in vitro [10]” were about 11.6 µL/min/mg, 21 µL/min/mg and 28 µL/min/mg, respectively. For the same compound, the half-life at 1 µM in data set [3] was 0.867 ± 0.217 h; in the data set “in vitro [4]”, over 4 h; in data set [7], 1.13 ± 0.117 h; in [8], about 2 h; in “in vitro [9]” (CD-1, mouse), over 4 h; in “in vitro [9]” (human) it was over 4 h. The half-life at 1 µM in “in vitro [11]” is over 4 h. The “Remaining amount of parent compound at 120 min” value in data set [6] was 49 ± 13%. In the data set “Cytotoxicity assay (MTT)”, this compound had a viability at 48 h, 100 µM of 44 ± 9%. For the same compound, in the data set “in vitro [11]”, the hepatocyte CLint at 1 µM is under 3.8 µL/min/1e6 cells.

With `CCC/C(C)=C/C=C(\C)C(=O)c1c(O)cc([C@H](C)CC/C=C/NC(=O)OC)oc1=O` [MYX A (1), myxopyronins A], the MIC is 2 µg/mL (≈ 4.79 µM) against Rif^R-S. aureus Newman; 4 µg/mL (≈ 9.58 µM) in the data set with wt-M. tuberculosis H37Rv; over 64 µg/mL in the data set with E. faecalis DSM-20478; 1 to 2 µg/mL (≈ 2.4 to 4.79 µM) with E. coli ΔtolC; 4 µg/mL (≈ 9.58 µM) against M^R -S. aureus N315; 1 to 2 µg/mL (≈ 2.4 to 4.79 µM) against M^R/V^R-S. aureus Mu50. In addition, the MIC against wt-S. aureus Newman (NEWMAN) was 2 to 4 µg/mL (≈ 4.79 to 9.58 µM). Further, the fraction unbound at 10 µM in “in vitro [1]” (CD-1, mouse) is 0.0026; in “in vitro [1]” (Wistar, rat), 0.0054; in the data set “in vitro [1]” (human), 0.0107. For the same compound, the microsomal CLint at 1 µM in the data set “in vitro [2]” was about 11.6 µL/min/mg; in “in vitro [5]”, 76 µL/min/mg; in the data set “in vitro [10]” it was 157 µL/min/mg. The half-life at 1 µM in [3] was 0.122 ± 0.0417 h; in the data set “in vitro [4]” it was over 4 h; in [7], 0.317 ± 0.0667 h; in [8] it was about 2 h; in “in vitro [9]” (CD-1, mouse), over 4 h; in “in vitro [9]” (human), over 4 h. This compound showed a half-life at 1 µM in the data set “in vitro [11]” of over 4 h. In data set [6], the “Remaining amount of parent compound at 120 min” value came to 51 ± 12%. In addition, in data set [12], the “Liver microsomes Clint” value was 211 ± 37 µL/min/mg. This compound gave a viability at 48 h, 100 µM in “Cytotoxicity assay (MTT)” of 39 ± 6%. The hepatocyte CLint at 1 µM in the data set “in vitro [11]” is under 3.8 µL/min/1e6 cells.

For the compound `CCCC/C(C)=C/C=C(\C)C(=O)c1c(O)cc([C@H](C)CC/C=C/NC(=O)OC)oc1=O` [MYX B (2)], in [13], the “half-life in human liver microsomes” value is listed as 3 min.

Regarding `COC(=O)N/C=C/CC[C@@H](C)c1cc(O)c(C(=O)/C(C)=C/C=C(\C)c2ccoc2)c(=O)o1` [compound 14], the “decomposition during fermentation and isolation” value in data set [14] is “highly susceptible to rapid decomposition”.

Take `CO[C@H]1/C=C/O[C@@]2(C)Oc3c(C)c(O)c4c(O)c(c(/C=N/N5CCN(C)CC5)c(O)c4c3C2=O)NC(=O)/C(C)=C\C=C\[C@H](C)[C@H](O)[C@@H](C)[C@@H](O)[C@@H](C)[C@H](OC(C)=O)[C@@H]1C` [rifampin]: the MIC against Rif^R-S. aureus Newman is over 64 µg/mL; in the data set on wt-M. tuberculosis H37Rv, 0.03 µg/mL (≈ 0.0365 µM); in the data set with E. faecalis DSM-20478 (E. faecalis DSM-20478, read-out: MIC) it was 1 µg/mL (≈ 1.22 µM); in the data set with E. coli ΔtolC, 16 µg/mL (≈ 19.4 µM); with M^R -S. aureus N315 (methicillin-resistant S. aureus N315, read-out: MIC) it was 0.0025 µg/mL (≈ 0.00304 µM); in the data set on M^R/V^R-S. aureus Mu50 (methicillin- and vancomycin-resistant S. aureus Mu50, read-out: MIC) it was over 64 µg/mL. For the same compound, the MIC in the data set with wt-S. aureus Newman (wt-S. aureus Newman, read-out: MIC) is 0.005 µg/mL (≈ 0.00608 µM).
